Results reported in the supplement of paper PMC11061612.

What was measured:
Carboplatin = compound: C1CC(C1)(C(=O)[O-])C(=O)[O-].N.N.[Pt+2] [Carboplatin]; conditions: max 10 µM
Outline: (§1)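 Viability was measured with CellTiter-Glo 2.0 luminescence after 72 hours of dosing at a final DMSO of typically 0.2%, and scaled between blank-well and DMSO-well means. Beforehand, cancer cell lines sat 24 hours at 37°C and 5% CO2 in 1536-well plates in 7.5 μl DMEM/F12 or RPMI with 10% FBS. A non-linear mixed effects model fitted two-parameter logistic curves to the dose responses. The single-agent IC50 comes from these fits.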

AZD5363 = compound: C1CN(CCC1(C(=O)N[C@@H](CCO)C2=CC=C(C=C2)Cl)N)C3=NC=NC4=C3C=CN4 [AZD5363]; conditions: max 10 µM
Outline: as §1

AZD1775 = compound: C=CCn1c(=O)c2cnc(Nc3ccc(N4CCN(C)CC4)cc3)nc2n1-c1cccc(C(C)(C)O)n1 [AZD1775]; conditions: max 3 µM
Outline: as §1

Trametinib = compound: CC(=O)Nc1cccc(-n2c(=O)n(C3CC3)c(=O)c3c(Nc4ccc(I)cc4F)n(C)c(=O)c(C)c32)c1 [Trametinib]; conditions: max 1 µM
Outline: as §1

Paclitaxel = compound: CC(=O)O[C@H]1C(=O)[C@@]2(C)[C@H]([C@H](OC(=O)c3ccccc3)[C@]3(O)C[C@H](OC(=O)[C@H](O)[C@@H](NC(=O)c4ccccc4)c4ccccc4)C(C)=C1C3(C)C)[C@]1(OC(C)=O)CO[C@@H]1C[C@@H]2O [Paclitaxel]; conditions: max 3 µM
Outline: as §1

Palbociclib = compound: CC(=O)c1c(C)c2cnc(Nc3ccc(N4CCNCC4)cn3)nc2n(C2CCCC2)c1=O [Palbociclib]; conditions: max 10 µM
Outline: as §1

AZD1390 = compound: CC(C)n1c(=O)n(C)c2cnc3cc(F)c(-c4ccc(OCCCN5CCCCC5)nc4)cc3c21 [AZD1390]; conditions: max 0.3 µM
Outline: as §1

Venetoclax = compound: CC1(C)CCC(CN2CCN(c3ccc(C(=O)NS(=O)(=O)c4ccc(NCC5CCOCC5)c([N+](=O)[O-])c4)c(Oc4cnc5[nH]ccc5c4)c3)CC2)=C(c2ccc(Cl)cc2)C1 [Venetoclax]; conditions: max 1 µM
Outline: as §1

Dasatinib = compound: CC1=C(C(=CC=C1)Cl)NC(=O)C2=CN=C(S2)NC3=CC(=NC(=N3)C)N4CCN(CC4)CCO [Dasatinib]; conditions: max 2 µM
Outline: as §1

SG3199 = compound: CC1=CN2[C@@H](C1)C=NC3=CC(=C(C=C3C2=O)OC)OCCCCCOC4=C(C=C5C(=C4)N=C[C@@H]6CC(=CN6C5=O)C)OC [SG3199]; conditions: max 0.001 µM
Outline: as §1

AZD2811 = compound: CCN(CCO)CCCOc1ccc2c(Nc3cc(CC(=O)Nc4cccc(F)c4)[nH]n3)ncnc2c1 [AZD2811]; conditions: max 1 µM
Outline: as §1

SN-38 = compound: CCc1c2c(nc3ccc(O)cc13)-c1cc3c(c(=O)n1C2)COC(=O)[C@]3(O)CC [SN-38]; conditions: max 0.3 µM
Outline: as §1

AZD0156 = compound: CN(C)CCCOc1ccc(-c2ccc3ncc4c(c3c2)n(C2CCOCC2)c(=O)n4C)cn1 [AZD0156]; conditions: max 3 µM
Outline: as §1

AZD4320 = compound: CN(CC[C@H](CSC1=CC=CC=C1)NC2=C(C=C(C=C2)S(=O)(=O)NC(=O)C3=CC=C(C=C3)N4CCC(CC4)[C@H](C5=CC=CC=C5C6=CC=C(C=C6)Cl)O)S(=O)(=O)C(F)(F)F)CCO [AZD4320]; conditions: max 1 µM
Outline: as §1

Alisertib = compound: COc1cc(Nc2ncc3c(n2)-c2ccc(Cl)cc2C(c2c(F)cccc2OC)=NC3)ccc1C(=O)O [Alisertib]; conditions: max 10 µM
Outline: as §1

Etoposide = compound: COc1cc([C@@H]2c3cc4c(cc3[C@@H](O[C@@H]3O[C@@H]5CO[C@@H](C)O[C@H]5[C@H](O)[C@H]3O)[C@H]3COC(=O)[C@H]23)OCO4)cc(OC)c1O [Etoposide]; conditions: max 10 µM
Outline: as §1

Gefitinib = compound: COc1cc2ncnc(Nc3ccc(F)c(Cl)c3)c2cc1OCCCN1CCOCC1 [Gefitinib]; conditions: max 10 µM
Outline: as §1

Prexasertib = compound: COc1cccc(OCCCN)c1-c1cc(Nc2cnc(C#N)cn2)n[nH]1 [Prexasertib]; conditions: max 1 µM
Outline: as §1

Doxorubicin = compound: COc1cccc2c1C(=O)c1c(O)c3c(c(O)c1C2=O)C[C@@](O)(C(=O)CO)C[C@@H]3O[C@H]1C[C@H](N)[C@H](O)[C@H](C)O1 [Doxorubicin]; conditions: max 1 µM
Outline: as §1

AZD5153 = compound: COc1nnc2ccc(N3CCC(c4ccc(OCCN5CCN(C)C(=O)[C@H]5C)cc4)CC3)nn12 [AZD5153]; conditions: max 1 µM
Outline: as §1

Lapatinib = compound: CS(=O)(=O)CCNCc1ccc(-c2ccc3ncnc(Nc4ccc(OCc5cccc(F)c5)c(Cl)c4)c3c2)o1 [Lapatinib]; conditions: max 10 µM
Outline: as §1

AZD8186 = compound: C[C@@H](Nc1cc(F)cc(F)c1)c1cc(C(=O)N(C)C)cc2c(=O)cc(N3CCOCC3)oc12 [AZD8186]; conditions: max 10 µM
Outline: as §1

Crizotinib = compound: C[C@@H](Oc1cc(-c2cnn(C3CCNCC3)c2)cnc1N)c1c(Cl)ccc(F)c1Cl [Crizotinib]; conditions: max 10 µM
Outline: as §1

Savolitinib = compound: C[C@@H](c1ccc2nccn2c1)n1nnc2ncc(-c3cnn(C)c3)nc21 [Savolitinib]; conditions: max 1 µM
Outline: as §1

AZD6738 = compound: C[C@@H]1COCCN1C2=NC(=NC(=C2)C3(CC3)[S@](=N)(=O)C)C4=C5C=CNC5=NC=C4 [AZD6738]; conditions: max 10 µM
Outline: as §1

AZD5991 = compound: Cc1c2c(nn1C)CSCc1cc(n(C)n1)CSc1cc(c3ccccc3c1)OCCCc1c(C(=O)O)n(C)c3c-2c(Cl)ccc13 [AZD5991]; conditions: max 1 µM
Outline: as §1

AZD7648 = compound: Cc1cc2ncnn2cc1Nc1ncc2c(n1)n(C1CCOCC1)c(=O)n2C [AZD7648]; conditions: max 10 µM
Outline: as §1

Taselisib = compound: Cc1nc(-c2cn3c(n2)-c2ccc(-c4cnn(C(C)(C)C(N)=O)c4)cc2OCC3)n(C(C)C)n1 [Taselisib]; conditions: max 10 µM
Outline: as §1

Selumetinib = compound: Cn1cnc2c(F)c(Nc3ccc(Br)cc3Cl)c(C(=O)NOCCO)cc21 [Selumetinib]; conditions: max 10 µM
Outline: as §1

SRA737 = compound: N#Cc1cnc(Nc2cc(NC[C@H]3CNCCO3)c(C(F)(F)F)cn2)cn1 [SRA737]; conditions: max 10 µM
Outline: as §1

MK-2206 = compound: NC1(c2ccc(-c3nc4ccn5c(=O)[nH]nc5c4cc3-c3ccccc3)cc2)CCC1 [MK-2206]; conditions: max 10 µM
Outline: as §1

Gemcitabine = compound: Nc1ccn([C@@H]2O[C@H](CO)[C@@H](O)C2(F)F)c(=O)n1 [Gemcitabine]; conditions: max 0.3 µM
Outline: as §1

[1] = compound: O=C(Nc1ccc2[nH]nc(-c3ccncc3)c2c1)[C@@H]1CCN(CC(=O)N2CCN(c3ccc(-c4ncccn4)cc3)CC2)C1; conditions: max 5 µM
Outline: as §1

Olaparib = compound: O=C(c1cc(Cc2n[nH]c(=O)c3ccccc23)ccc1F)N1CCN(C(=O)C2CC2)CC1 [Olaparib]; conditions: max 10 µM
Outline: as §1

5-Fluorouracil = compound: O=c1[nH]cc(F)c(=O)[nH]1 [5-Fluorouracil]; conditions: max 20 µM
Outline: as §1

SK-N-AS (Neuroblastoma)
IC50, cell viability 72 h (Carboplatin): > 10000 nM
IC50, cell viability 72 h (AZD5363): > 10000 nM
IC50, cell viability 72 h (AZD1775): 1000 nM
IC50, cell viability 72 h (Trametinib): 126 nM
IC50, cell viability 72 h (Paclitaxel): 299 nM
IC50, cell viability 72 h (Palbociclib): > 10000 nM
IC50, cell viability 72 h (AZD1390): > 300 nM
IC50, cell viability 72 h (Venetoclax): > 1000 nM
IC50, cell viability 72 h (Dasatinib): > 2000 nM
IC50, cell viability 72 h (SG3199): > 1 nM
IC50, cell viability 72 h (AZD2811): > 1000 nM
IC50, cell viability 72 h (SN-38): 81.2 nM
IC50, cell viability 72 h (AZD0156): > 3000 nM
IC50, cell viability 72 h (AZD4320): > 1000 nM
IC50, cell viability 72 h (Alisertib): 780 nM
IC50, cell viability 72 h (Etoposide): > 10000 nM
IC50, cell viability 72 h (Gefitinib): > 10000 nM
IC50, cell viability 72 h (Prexasertib): 10 nM
IC50, cell viability 72 h (Doxorubicin): > 1000 nM
IC50, cell viability 72 h (AZD5153): > 1000 nM
IC50, cell viability 72 h (Lapatinib): > 10000 nM
IC50, cell viability 72 h (AZD8186): > 10000 nM
IC50, cell viability 72 h (Crizotinib): > 10000 nM
IC50, cell viability 72 h (Savolitinib): > 1000 nM
IC50, cell viability 72 h (AZD6738): 2940 nM
IC50, cell viability 72 h (AZD5991): > 1000 nM
IC50, cell viability 72 h (AZD7648): > 10000 nM
IC50, cell viability 72 h (Taselisib): > 10000 nM
IC50, cell viability 72 h (Selumetinib): > 10000 nM
IC50, cell viability 72 h (SRA737): 8030 nM
IC50, cell viability 72 h (MK-2206): > 10000 nM
IC50, cell viability 72 h (Gemcitabine): 232 nM
IC50, cell viability 72 h [1]: > 5000 nM
IC50, cell viability 72 h (Olaparib): > 10000 nM
IC50, cell viability 72 h (5-Fluorouracil): > 20000 nM

NCI-H1355 (Lung Adenocarcinoma)
IC50, cell viability 72 h (Carboplatin): > 10000 nM
IC50, cell viability 72 h (AZD5363): > 10000 nM
IC50, cell viability 72 h (AZD1775): > 3000 nM
IC50, cell viability 72 h (Trametinib): > 1000 nM
IC50, cell viability 72 h (Paclitaxel): 42.9 nM
IC50, cell viability 72 h (Palbociclib): > 10000 nM
IC50, cell viability 72 h (AZD1390): > 300 nM
IC50, cell viability 72 h (Venetoclax): > 1000 nM
IC50, cell viability 72 h (Dasatinib): > 2000 nM
IC50, cell viability 72 h (SG3199): > 1 nM
IC50, cell viability 72 h (AZD2811): > 1000 nM
IC50, cell viability 72 h (SN-38): > 300 nM
IC50, cell viability 72 h (AZD0156): > 3000 nM
IC50, cell viability 72 h (AZD4320): > 1000 nM
IC50, cell viability 72 h (Alisertib): > 10000 nM
IC50, cell viability 72 h (Etoposide): > 10000 nM
IC50, cell viability 72 h (Gefitinib): > 10000 nM
IC50, cell viability 72 h (Prexasertib): 86.5 nM
IC50, cell viability 72 h (Doxorubicin): > 1000 nM
IC50, cell viability 72 h (AZD5153): > 1000 nM
IC50, cell viability 72 h (Lapatinib): > 10000 nM
IC50, cell viability 72 h (AZD8186): > 10000 nM
IC50, cell viability 72 h (Crizotinib): > 10000 nM
IC50, cell viability 72 h (Savolitinib): > 1000 nM
IC50, cell viability 72 h (AZD6738): 8560 nM
IC50, cell viability 72 h (AZD5991): > 1000 nM
IC50, cell viability 72 h (AZD7648): > 10000 nM
IC50, cell viability 72 h (Taselisib): 5790 nM
IC50, cell viability 72 h (Selumetinib): > 10000 nM
IC50, cell viability 72 h (SRA737): > 10000 nM
IC50, cell viability 72 h (MK-2206): > 10000 nM
IC50, cell viability 72 h (Gemcitabine): > 300 nM
IC50, cell viability 72 h [1]: > 5000 nM
IC50, cell viability 72 h (Olaparib): > 10000 nM
IC50, cell viability 72 h (5-Fluorouracil): > 20000 nM
